Measurements from patent publication US9233979B2, “Compounds that are ERK inhibitors” (Merck Sharp & Dohme Corp., priority 2012, dated 2016).

These molecules were tested against phosphorylated active hERK2 enzyme (Homo sapiens (Human), UniProt P28482) (assay: Active Human ERK2 (hERK2) Activity Assay (IMAP-FP)). Conditions: Table 6, 0.5 nM hERK2, 30 μM ATP, 10 point titration, read-out: AERK2 IC50.
Assay type: biochemical
Method in brief: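 IMAP detection beads in buffer with 24 mM NaCl stopped the reaction, and fluorescence polarization was read after 60 min binding.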

Sequence of phosphorylated active hERK2 enzyme (P28482 whole entry): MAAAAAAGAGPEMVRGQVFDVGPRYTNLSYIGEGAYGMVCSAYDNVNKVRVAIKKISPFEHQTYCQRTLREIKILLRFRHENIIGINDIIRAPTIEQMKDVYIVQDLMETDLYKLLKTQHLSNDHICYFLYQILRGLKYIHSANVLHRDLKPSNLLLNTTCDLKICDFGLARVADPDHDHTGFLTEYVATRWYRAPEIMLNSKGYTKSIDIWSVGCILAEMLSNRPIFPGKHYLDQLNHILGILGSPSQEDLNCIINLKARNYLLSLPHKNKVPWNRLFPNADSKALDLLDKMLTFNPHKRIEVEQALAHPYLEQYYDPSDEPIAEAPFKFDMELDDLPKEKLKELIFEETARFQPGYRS

Structure (SMILES) | IC50
C[C@@H](NC(=O)Nc1cc2[nH]nc3c2c(n1)COC(=O)N3)c1ccccc1 [Example 368, 1-(8-oxo-2,6,8,9-tetrahydro-7-oxa-1,2,5,9-tetraazabenzo[cd]-azulen-4-yl)-3-[(1R)-1-phenylethyl]urea] | 1.1 nM
COC[C@@H](NC(=O)Nc1cc2[nH]nc(Nc3cnn(C)c3)c2cn1)c1ccccc1 [Example 370, 1-[(1S)-2-methoxy-1-phenylethyl]-3-{3-[(1-methyl-1H-pyrazol-4-yl)-amino]-1H-pyrazolo[4,3-c]-pyridin-6-yl}urea] | 19.7 nM
COCCNc1n[nH]c2cc(NC(=O)N[C@H](COC)c3ccccc3)ncc12 [Example 371, 1-{3-[(2-methoxy-ethyl)amino]-1H-pyrazolo[4,3-c]-pyridin-6-yl}-3-[(1S)-2-methoxy-1-phenylethyl]urea] | 0.7 nM
Nc1n[nH]c2cc(NC(=O)N[C@H](CO)c3ccccc3)ncc12 [Example 375, 1-(3-amino-1H-pyrazolo[4,3-c]-pyridin-6-yl)-3-[(1S)-2-hydroxy-1-phenylethyl]urea] | 2.5 nM
C[C@@H](NC(=O)Nc1cc2[nH]nc(N3CC4C5CCC(C)(O5)C4C3)c2cn1)c1ccc(F)cc1 (stereo partly drawn) [Example 376, 1-[(1R)-1-(4-fluorophenyl)ethyl]-3-[3-(4-methyl-octahydro-2H-4,7-epoxyisoindol-2-yl)-1H-pyrazolo[4,3-c]-pyridin-6-yl]urea] | 13.8 nM
CC12CCC(O1)C1CN(c3n[nH]c4cc(NC(=O)N[C@@H](c5ccc(F)cc5)C(C)(C)O)ncc34)CC12 (stereo partly drawn) [Example 377, 1-[(1S)-1-(4-fluorophenyl)-2-hydroxy-2-methyl-propyl]-3-[3-(4-methyloctahydro-2H-4,7-epoxyisoindo1-2-yl)-1H-pyrazolo[4,3-c]-pyridin-6-yl]urea] | 2.3 nM
C[C@@H](NC(=O)Nc1cc2[nH]nc(Nc3ccccc3)c2cn1)c1ccccc1 [Example 379, 1-[3-(phenyl-amino)-1H-pyrazolo[4,3-c]-pyridin-6-yl]-3-[(1R)-1-phenylethyl]urea] | 127 nM
C[C@@H](NC(=O)Nc1cc2[nH]nc(Nc3ccc(C#N)nc3)c2cn1)c1ccccc1 [Example 381, 1-{3-[(6-cyanopyridin-3-yl)amino]-1H-pyrazolo[4,3-c]-pyridin-6-yl}-3-[(1R)-1-phenylethyl]urea] | 367 nM
C[C@@H](NC(=O)Nc1cc2[nH]nc(Nc3ccc(F)nc3)c2cn1)c1ccccc1 [Example 382, 1-{3-[(6-fluoropyridin-3-yl)amino]-1H-pyrazolo[4,3-c]-pyridin-6-yl}-3-[(1R)-1-phenylethyl]urea] | 72.1 nM
COC[C@@H](NC(=O)Nc1cc2[nH]nc(Nc3ccccc3C#N)c2cn1)c1ccccc1 [Example 383, 1-{3-[(2-cyanophenyl)amino]-1H-pyrazolo[4,3-c]pyridin-6-yl}-3-[(1S)-2-methoxy-1-phenylethyl]urea] | 2280 nM
COC[C@@H](NC(=O)Nc1cc2[nH]nc(Nc3ccccc3F)c2cn1)c1ccccc1 [Example 384, 1-{3-[(2-fluoro-phenyl)amino]-1H-pyrazolo[4,3-c]-pyridin-6-yl}-3-[(1S)-2-methoxy-1-phenylethyl]urea] | 9.4 nM
C[C@@H](O)[C@@H](NC(=O)Nc1cc2[nH]nc(N3CCc4ncsc4C3)c2cn1)c1ccccc1 [Example 387, 1-[3-(6,7-dihydro[1,3]-thiazolo[5,4-c]-pyridin-5(4H)-yl)-1H-pyrazolo[4,3-c]pyridin-6-yl]-3-[(1S,2R)-2-hydroxy-1-phenylpropyl]urea] | 0.5 nM
C[C@H](O)[C@@H](NC(=O)Nc1cc2[nH]nc(N3CCc4ncsc4C3)c2cn1)c1ccccc1 [Example 388, 1-[3-(6,7-dihydro[1,3]-thiazolo[5,4-c]pyridin-5(4H)-yl)-1H-pyrazolo[4,3-c]-pyridin-6-yl]-3-[(1S,2S)-2-hydroxy-1-phenylpropyl]urea] | 34.6 nM
C[C@@H](NC(=O)Nc1cc2[nH]nc(N3CCc4nn(C)cc4C3)c2cn1)c1ccc(F)cc1 [Example 391, 1-[(1R)-1-(4-fluorophenyl)ethyl]-3-(2′-methyl-2′,4′,6′,7′-tetrahydro-1H-3,5′-bipyrazolo[4,3-c]-pyridin-6-yl)urea] | 0.4 nM
C[C@@H](O)[C@@H](NC(=O)Nc1cc2[nH]nc(N3CCc4nn(C)cc4C3)c2cn1)c1ccccc1 [Example 393, 1-[(1S,2R)-2-hydroxy-1-phenylpropyl]-3-(2′-methyl-2′,4′,6′,7′-tetrahydro-1H-3,5′-bipyrazolo[4,3-c]-pyridin-6-yl)urea] | 0.4 nM
O=C(Nc1cc2[nH]nc(NC(=O)N3CC(F)(F)C3)c2cn1)N[C@H]1c2ccccc2OCC[C@H]1O [Example 396] | 0.3 nM
O=C(Nc1cc2[nH]nc(NC(=O)N3CC(F)(F)C3)c2cn1)N[C@@H]1CCCOc2ccccc21 [Example 397, 3,3-difluoro-N-(6-{[(5R)-2,3,4,5-tetrahydro-1-benzoxepin-5-yl-carbamoyl]amino}-1H-pyrazolo[4,3-c]pyridin-3-yl)-azetidine-1-carboxamide] | 4.4 nM

The next lines start with the values.

IC50 | Structure (SMILES)
14.7 nM | COC[C@@H](NC(=O)Nc1cc2[nH]nc(Nc3cnn(C)c3)c2cn1)c1ccc(F)cc1 [Example 372, 1-[(1S)-1-(4-fluorophenyl)-2-methoxyethyl]-3-{3-[(1-methyl-1H-pyrazol-4-yl)-amino]-1H-pyrazolo[4,3-c]-pyridin-6-yl}urea]
2.8 nM | COCCNc1n[nH]c2cc(NC(=O)N[C@H](C)c3ccc(F)cc3)ncc12 [Example 374, 1-[(1R)-1-(4-fluorophenyl)ethyl]-3-{3-[(2-methoxy-ethyl)amino]-1H-pyrazolo[4,3-c]-pyridin-6-yl}urea]
2 nM | COC(=O)Nc1n[nH]c2cc(NC(=O)N[C@@H](c3ccccc3)C3(O)CCC3)ncc12 [Example 385, methyl [6-({[(S)-(1-hydroxycyclo-butyl)(phenyl)-methyl]carbamoyl}amino)-1H-pyrazolo[4,3-c]-pyridin-3-yl]-carbamate]
0.4 nM | COC(=O)Nc1n[nH]c2cc(NC(=O)N[C@@H](c3ccc(F)cc3)C3(O)CCC3)ncc12 [Example 386, methyl [6-({[(S)-(4-fluorophenyl)(1-hydroxycyclobutyl)methyl]carbamoyl}amino)-1H-pyrazolo[4,3-c]-pyridin-3-yl]-carbamate]
0.4 nM | COC(=O)Nc1n[nH]c2cc(NC(=O)N[C@@H](c3ccccc3)C(C)(C)O)ncc12 [Example 389, methyl [6-({[(1S)-2-hydroxy-2-methyl-1-phenyl-propyl]carbamoyl}amino)-1H-pyrazolo[4,3-c]-pyridin-3-yl]-carbamate]
0.5 nM | COC(=O)Nc1n[nH]c2cc(NC(=O)N[C@@H](c3ccc(F)cc3)C(C)(C)O)ncc12 [Example 390, methyl [6-({[(1S)-1-(4-fluorophenyl)-2-hydroxy-2-methylpropyl]-carbamoyl}amino)-1H-pyrazolo[4,3-c]pyridin-3-yl]-carbamate]
2.6 nM | COC(=O)Nc1n[nH]c2cc(NC(=O)NC(c3ccc(Cl)c(Cl)c3)c3cnco3)ncc12 (stereo not drawn) [Example 392, methyl [6-({[(3,4-dichlorophenyl)(1,3-oxazol-5-yl)-methyl]carbamoyl}amino)-1H-pyrazolo[4,3-c]-pyridin-3-yl]-carbamate]
0.3 nM | COC(=O)Nc1n[nH]c2cc(NC(=O)N[C@H]3c4ccccc4OCC[C@H]3O)ncc12 [Example 394, methyl [6-({[(4R,5S)-4-hydroxy-2,3,4,5-tetrahydro-1-benzoxepin-5-yl]-carbamoyl}amino)-1H-pyrazolo[4,3-c]pyridin-3-yl]-carbamate]
0.6 nM | CC(=O)Nc1n[nH]c2cc(NC(=O)N[C@@H](c3ccc(F)cc3)C(C)(C)O)ncc12 [Example 395, N-[6-({[(1S)-1-(4-fluorophenyl)-2-hydroxy-2-methylpropyl]-carbamoyl}amino)-1H-pyrazolo[4,3-c]-pyridin-3-yl]-acetamide]
52.5 nM | CC(C)OC(=O)Nc1n[nH]c2cc(NC(=O)N[C@H](C)c3ccc(F)cc3)ncc12 [Example 398, 1-methylethyl [6-({[(1R)-1-(4-fluorophenyl)ethyl]carbamoyl}amino)-1H-pyrazolo[4,3-c]pyridin-3-yl]-carbamate]
19.7 nM | C[C@@H](NC(=O)Nc1cc2[nH]nc(NC(=O)OC3CCOCC3)c2cn1)c1ccc(F)cc1 [Example 399, tetrahydro-2H-pyran-4-yl [6-({[(1R)-1-(4-fluorophenyl)ethyl]carbamoyl}amino)-1H-pyrazolo[4,3-c]pyridin-3-yl]-carbamate]
1.6 nM | CC(C)(O)[C@@H](NC(=O)Nc1cc2[nH]nc(NC(=O)OC3CCOCC3)c2cn1)c1ccc(F)cc1 [Example 400, tetrahydro-2H-pyran-4-yl [6-({[(1S)-1-(4-fluorophenyl)-2-hydroxy-2-methylpropyl]-carbamoyl}amino)-1H-pyrazolo[4,3-c]pyridin-3-yl]-carbamate]
15.3 nM | C[C@@H](NC(=O)Nc1cc2[nH]nc(NC(=O)OC3CCOC3)c2cn1)c1ccc(F)cc1 (stereo partly drawn) [Example 401, tetrahydrofuran-3-yl [6-({[(1R)-1-(4-fluorophenyl)ethyl]carbamoyl}amino)-1H-pyrazolo[4,3-c]pyridin-3-yl]-carbamate]
2.9 nM | CC(C)(O)[C@@H](NC(=O)Nc1cc2[nH]nc(NC(=O)OC3CCOC3)c2cn1)c1ccc(F)cc1 (stereo partly drawn) [Example 402, tetrahydrofuran-3-yl [6-({[(1S)-1-(4-fluorophenyl)-2-hydroxy-2-methyl-propyl]carbamoyl}amino)-1H-pyrazolo[4,3-c]-pyridin-3-yl]-carbamate]
1.1 nM | CC(C)OC(=O)Nc1n[nH]c2cc(NC(=O)N[C@@H](c3ccc(F)cc3)C(C)(C)O)ncc12 [Example 403, 1-methylethyl [6-({[(1S)-1-(4-fluorophenyl)-2-hydroxy-2-methyl-propyl]carbamoyl}amino)-1H-pyrazolo[4,3-c]-pyridin-3-yl]-carbamate]
5.3 nM | C[C@@H](NC(=O)Nc1cc2[nH]nc(NC(=O)OCCO)c2cn1)c1ccc(F)cc1 [Example 404, 2-hydroxyethyl [6-({[(1R)-1-(4-fluorophenyl)ethyl]carbamoyl}amino)-1H-pyrazolo[4,3-c]pyridin-3-yl]-carbamate]
